Results on six substances are retold here after patent US20250237650A1 (priority 2021, published 2025).

Test [1] concerns the target SARS-CoV-2 spike. In kind it is binding. To be noted: for Kd: pH 7.4.
Test [2] has as its system SARS-CoV-2 spike.
Test [3] addresses Env (monomeric gp140; Clade CRF07_BC). Description: BLI of HS/HEP to monomeric Env. On the set-up: species or system HIV-1. To be noted: steady-state analysis of BLI data; read-out: Estimated binding affinity (KD).
In test [4] the test system is variants of Env (trimeric gp140; Clade C, B, A). The test can be described thus: BLI of HS to variants of trimeric Env. It counts as binding, HIV-1.
The target in test [5] is trimeric Env (Group M; Clade C). Description: BLI of HS to trimeric Env. On the set-up: species or system HIV-1. The conditions noted are these: read-out: estimated binding affinity.

Substance chondroitin sulfate [CS25] displayed a Kd at SARS-CoV-2 spike [1] of 17.9 nM. As to heparan sulfate [HS15], the “LFSA signal intensity of capture probes” value in the test with SARS-CoV-2 spike [2] is “highest signal intensity”. On the same count and under the same terms, next, heparin [HEP27, reference compound]: “lower signal intensity”.

On to heparan sulfate [HS], for which the Kd in test [3] was 142 nM; in test [5] it was 28 nM. The “Binding affinity of HS to all the subtypes” value in test [4] was “in the nanomolar range”.

For the substance heparin [reference compound], in test [3], the Kd was 209 nM. For the same substance, in the test with SARS-CoV-2 spike [1], the “HEP binding affinity to spike as ionic strength increased” value is “dramatically decreased”.

In the case of heparin [HEP15, reference compound], the Kd at SARS-CoV-2 spike [1] stood at 215 nM.
